Data taken from PMC11280325, “Design, Synthesis, and Characterization of Novel Thiazolidine-2,4-Dione-Acridine Hybrids as Antitumor Agents” (Molecules, 2024).
Structures can show the parent of a compound that is named as a salt.

Assays:
Hep G2 = test: MTT assay, Hep G2; assay type: cell-based, human; settings: hepatocellular carcinoma, 48 h incubation
Method: (§1) The human cancer cell lines HeLa (cervical adenocarcinoma), HCT116 (colorectal adenocarcinoma), A2780 (human ovarian adenocarcinoma), A2780cis (human ovarian adenocarcinoma cisplatin-resistant), Jurkat (acute T-lymphoblastic leukemia), and Hep G2 (hepatocellular carcinoma) were cultured in an RPMI 1640 growth medium (Biosera, Kansas City, MO, USA). The cancer cell lines MDA-MB-231 (triple-negative breast adenocarcinoma), A2058 (human melanoma), U87 (human glioblastoma), PATU 8902 (pancreas adenocarcinoma), and A549 (human lung adenocarcinoma) were cultured in a DMEM medium (Biosera, Kansas City, MO, USA). The media were supplemented with 10% fetal bovine serum (FBS) (Invitrogen, Carlsbad, CA, USA) and 1× HyClone™ Antibiotic/Antimycotic Solution (GE Healthcare, Piscataway, NJ, USA).
(§2) To evaluate the IC50 (half-maximal inhibitory concentration) and confirm the antiproliferative activity of the tested substances, we employed the colorimetric MTT assay (3-(4,5-dimethylthiazol-2-yl)-2,5-diphenyltetrazolium bromide) (Sigma-Aldrich Chemie, Steinheim, Germany). The cell lines were seeded in 96-well plates at a density of 5 × 10^3 to 10 × 10^3 cells per well. After 24 h, the tested substances, dissolved in the cultivation medium, were added to the cells at final concentrations of 5, 10, 20, and 50 µmol/L. The cells were then incubated for 48 h under standard cultivation conditions. Following the incubation period, MTT was added to each well. The MTT was metabolized by the cells into insoluble formazan crystals, which were subsequently dissolved by adding 100 µL of 10% SDS. After another 24 h, the absorbance was measured at a wavelength of 540 nm using the automated Cytation™ 3 Cell Imaging Multi-Mode Reader (Biotek, Winooski, VT, USA). The experiments were performed in at least three independent repetitions. IC50 values were calculated using a nonlinear regression method.

PATU = test: MTT assay, PATU 8902; assay type: cell-based, human; settings: pancreas adenocarcinoma, 48 h incubation
Method: as §1, §2

HCT116 = test: MTT assay, HCT116; assay type: cell-based, human; settings: colorectal adenocarcinoma, 48 h incubation
Method: as §1, §2

A549 = test: MTT assay, A549; assay type: cell-based, human; settings: lung adenocarcinoma, 48 h incubation
Method: as §1, §2

A2780 = test: MTT assay, A2780; assay type: cell-based, human; settings: ovarian adenocarcinoma, 48 h incubation
Method: as §1, §2

A2058 = test: MTT assay, A2058; assay type: cell-based; settings: human melanoma, 48 h incubation
Method: as §1, §2

Bj-5ta = test: MTT assay, BJ-5ta non-cancerous fibroblasts; assay type: cell-based, human; settings: non-cancerous dermal fibroblasts, 48 h incubation
Method: (§3) The non-cancerous cell line MCF-10A (human epithelial breast cells) was cultured in a DMEM F12 medium supplemented with 10% FBS (Invitrogen, Carlsbad, CA, USA), 1× HyClone™ Antibiotic/Antimycotic Solution (GE Healthcare, Piscataway, NJ, USA), insulin, hEGF, and hydrocortisone. The BJ-5ta cells (human dermal fibroblasts) were cultured in a DMEM-M199 4:1 medium mixture, supplemented with 10% FBS and hygromycin B (0.01 mg/mL). The cells were maintained under standard conditions with an atmosphere containing 5% CO2 at 37 °C. Cell viability, estimated by trypan blue exclusion, was consistently greater than 95% before each experiment.
as §2

HeLa = test: MTT assay, HeLa; assay type: cell-based, human; settings: cervical adenocarcinoma, 48 h incubation
Method: as §1, §2

MCF-10A = test: MTT assay, MCF-10A non-cancerous cells; assay type: cell-based, human; settings: non-cancerous epithelial breast cells, 48 h incubation
Method: as §3, §2

Row | SMILES | IC50 (Hep G2; Homo sapiens, HepG2, 48 h) [µM] | IC50 (PATU; Homo sapiens, PaTu 8902, 48 h) [µM] | IC50 (HCT116; Homo sapiens, HCT-116, 48 h) [µM] | IC50 (A549; Homo sapiens, A549, 48 h) [µM] | IC50 (A2780; Homo sapiens, A2780, 48 h) [µM] | IC50 (A2058; Homo sapiens, A2058, 48 h) [µM] | IC50 (Bj-5ta; Homo sapiens, Fibroblast, 48 h) [µM] | IC50 (HeLa) [µM] | melting point | IC50 (MCF-10A; Homo sapiens, MCF-10A, 48 h) [µM] | IC50 (HCT116) [µM] | IC50 (HeLa; Homo sapiens, HeLa, 48 h) [µM] | IC50 (MCF-10A) [µM] | IC50 (Hep G2) [µM] | IC50 (PATU) [µM] | IC50 (A549) [µM] | IC50 (A2780) [µM] | IC50 (A2058) [µM] | IC50 (Bj-5ta) [µM]
1 | COc1cc(NC(=O)COc2ccc(/C=C3\SC(=O)N(Cc4cccc5cc6ccccc6nc45)C3=O)cc2)cc(OC)c1 [Compound 8b, 2-(4-{[(5Z)-3-[(Acridin-4-yl)methyl]-2,4-dioxo-1,3-thiazolidin-5-ylidene]methyl}phenoxy)-N-(3,5-dimethoxyphenyl)acetamide] | > 50 | > 50 | > 50 | > 50 | > 50 | > 50 | > 50 | 12 ± 2.8 | 168 to 169 °C (dec.) | > 50 |  |  |  |  |  |  |  |  | 
2 | O=C(COc1ccc(/C=C2\SC(=O)N(Cc3c4ccccc4nc4ccccc34)C2=O)cc1)Nc1cc(C(F)(F)F)cc(C(F)(F)F)c1 [Compound 7g, 2-(4-{[(5Z)-3-[(Acridin-9-yl)methyl]-2,4-dioxo-1,3-thiazolidin-5-ylidene]methyl}phenoxy)-N-[3,5-bis(trifluoromethyl)phenyl]acetamide] | > 50 | > 50 |  | 18.9 ± 3.85 | > 50 | > 50 | > 50 |  | 227 to 228 °C (dec.) |  | 18 ± 1.2 | 20.9 ± 2.8 | > 50 |  |  |  |  |  | 
3 | O=C(COc1ccc(/C=C2\SC(=O)N(Cc3cccc4cc5ccccc5nc34)C2=O)cc1)Nc1cccc(C(F)(F)F)c1 [Compound 8f, 2-(4-{[(5Z)-3-[(Acridin-4-yl)methyl]-2,4-dioxo-1,3-thiazolidin-5-ylidene]methyl}phenoxy)-N-[3-(trifluoromethyl)phenyl]acetamide] | > 50 | > 50 | 25.1 ± 7.8 | > 50 | > 50 | > 50 | > 50 |  | 219 to 220 °C (dec.) | > 50 |  | 27.7 ± 4.6 |  |  |  |  |  |  | 
4 | O=C(COc1ccc(/C=C2\SC(=O)N(Cc3c4ccccc4nc4ccccc34)C2=O)cc1)Nc1cccc(C(F)(F)F)c1 [7f·2HCl, 2-(4-{[(5Z)-3-[(Acridin-9-yl)methyl]-2,4-dioxo-1,3-thiazolidin-5-ylidene]methyl}phenoxy)-N-[3-(trifluoromethyl)phenyl]acetamide dihydrochloride] |  |  |  |  |  |  |  | 6.9 ± 0.2 |  |  | 15.2 ± 3.4 |  | 7.7 ± 1.5 | 27.4 ± 5.9 | 9.82 ± 1.92 | 34 ± 6.05 | > 50 | > 50 | 39.5 ± 6.5
5 | O=C(COc1ccc(/C=C2\SC(=O)N(Cc3c4ccccc4nc4ccccc34)C2=O)cc1)Nc1cc(C(F)(F)F)cc(C(F)(F)F)c1 [7g·2HCl, 2-(4-{[(5Z)-3-[(Acridin-9-yl)methyl]-2,4-dioxo-1,3-thiazolidin-5-ylidene]methyl}phenoxy)-N-[3,5-bis(trifluoromethyl)phenyl]acetamide dihydrochloride] |  |  |  |  |  |  |  | 19.3 ± 4.6 |  |  | > 50 |  | 13.2 ± 3.2 | > 50 | > 50 | 32.4 ± 7.6 | > 50 | > 50 | > 50
6 | COc1cc(NC(=O)COc2ccc(/C=C3\SC(=O)N(Cc4c5ccccc5nc5ccccc45)C3=O)cc2)cc(OC)c1OC [7c·2HCl, 2-(4-{[(5Z)-3-[(Acridin-9-yl)methyl]-2,4-dioxo-1,3-thiazolidin-5-ylidene]methyl}phenoxy)-N-(3,4,5-trimethoxyphenyl)acetamide dihydrochloride] |  |  |  |  |  |  |  | 21.4 ± 5.8 |  |  | 16.9 ± 1.75 |  | > 50 | > 50 | > 50 | > 50 | > 50 | > 50 | > 50
7 | COc1cc(NC(=O)COc2ccc(/C=C3\SC(=O)N(Cc4c5ccccc5nc5ccccc45)C3=O)cc2)cc(OC)c1 [7b·2HCl, 2-(4-{[(5Z)-3-[(Acridin-9-yl)methyl]-2,4-dioxo-1,3-thiazolidin-5-ylidene]methyl}phenoxy)-N-(3,5-dimethoxyphenyl)acetamide dihydrochloride] |  |  |  |  |  |  |  | 6.11 ± 1.2 |  |  | 17.4 ± 1.74 |  | 11.3 ± 2.05 | > 50 | > 50 | 21.9 ± 3.35 | > 50 | > 50 | 34.5 ± 5.5
8 | O=C(COc1ccc(/C=C2\SC(=O)N(Cc3c4ccccc4nc4ccccc34)C2=O)cc1)Nc1ccc([N+](=O)[O-])cc1 [7d·2HCl, 2-(4-{[(5Z)-3-[(Acridin-9-yl)methyl]-2,4-dioxo-1,3-thiazolidin-5-ylidene]methyl}phenoxy)-N-(4-nitrophenyl)acetamide dihydrochloride] |  |  |  |  |  |  |  | 4.55 ± 0.35 |  |  | 8.6 ± 2.9 |  | > 50 | > 50 | > 50 | > 50 | > 50 | > 50 | > 50
9 | O=C(COc1ccc(/C=C2\SC(=O)N(Cc3c4ccccc4nc4ccccc34)C2=O)cc1)Nc1ccccc1 [7a·2HCl, 2-(4-{[(5Z)-3-[(Acridin-9-yl)methyl]-2,4-dioxo-1,3-thiazolidin-5-ylidene]methyl}phenoxy)-N-phenylacetamide dihydrochloride] |  |  |  |  |  |  |  | 17.7 ± 4.04 |  |  | 13.1 ± 2.3 |  | 17.6 ± 4.3 | > 50 | > 50 | 17 ± 1.35 | > 50 | > 50 | 29.9 ± 7.2
10 | COc1cc(/C=C2\SC(=O)N(Cc3c4ccccc4nc4ccccc34)C2=O)ccc1OCC(=O)Nc1cc(OC)c(OC)c(OC)c1 [12c·2HCl, 2-(4-{[(5Z)-3-[(Acridin-9-yl)methyl]-2,4-dioxo-1,3-thiazolidin-5-ylidene]methyl}-2-methoxyphenoxy)-N-(3,4,5-trimethoxyphenyl)acetamide dihydrochloride] |  |  |  |  |  |  |  | 20.2 ± 5.4 |  |  | 5.4 ± 2.4 |  | > 50 | > 50 | > 50 | > 50 | > 50 | > 50 | > 50
11 | COc1cc(/C=C2\SC(=O)N(Cc3c4ccccc4nc4ccccc34)C2=O)ccc1OCC(=O)Nc1cccc(C(F)(F)F)c1 [12f·2HCl, 2-(4-{[(5Z)-3-[(Acridin-9-yl)methyl]-2,4-dioxo-1,3-thiazolidin-5-ylidene]methyl}-2-methoxyphenoxy)-N-[3-(trifluoromethyl)phenyl]acetamide dihydrochloride] |  |  |  |  |  |  |  | 19.4 ± 6.48 |  |  | 4.98 ± 2.9 |  | > 50 | > 50 | > 50 | > 50 | > 50 | > 50 | > 50
12 | COc1cc(/C=C2\SC(=O)N(Cc3c4ccccc4nc4ccccc34)C2=O)ccc1OCC(=O)Nc1cc(C(F)(F)F)cc(C(F)(F)F)c1 [12g·2HCl, 2-(4-{[(5Z)-3-[(Acridin-9-yl)methyl]-2,4-dioxo-1,3-thiazolidin-5-ylidene]methyl}-2-methoxyphenoxy)-N-[3,5-bis(trifluoromethyl)phenyl]acetamide dihydrochloride] |  |  |  |  |  |  |  | 25.1 ± 6.4 |  |  | 26.7 ± 9.01 |  | > 50 | > 50 | > 50 | > 50 | > 50 | > 50 | > 50
